Laboratory results reported in US12018023B2 (NERVIANO MEDICAL SCIENCES S.R.L., priority 2018, dated 2024).

Legend:
[1] = molecular target: T1, IDH1^R132C (Homo sapiens, UniProt O75874, R132C); assay: NADPH depletion assay, IDH1 R132C; type: biochemical
T1 construct: purchased not specified
Protocol: (§1) IDH mutated enzyme activity converting alpha-ketoglutarate to 2-hydroxyglutaric acid is measured using a NADPH depletion assay. In the assay the remaining cofactor is measured at the end of the reaction with the addition of a catalytic excess of diaphorase and resazurin, to generate a fluorescent signal in proportion to the amount of NADPH remaining. IDH1 WT enzyme as well as mutated isoforms IDH1^R132H, IDH1^R132C, and IDH^2R172K enzymes are commercially available proteins (see e.g. Sino Biological, Abcam, Active Motif or Creative BioMart).
(§2) IDH1^R132H homodimer enzyme are diluted to 8 nM, in 10 μL of Assay Buffer (150 mM NaCl, 50 mM Tris-HCl pH 7.6, 10 mM MgCl2, 0.001% Triton X-100, 4 mM β-mercaptoethanol); 0.2 uL of test compound, previously serially diluted 1 to 3, >10 experimental points from 1 mM in DMSO, is added and the mixture is incubated for 15 minutes at room temperature. The reaction is started with the addition of 10 μL of Substrate Mix (12 uM NADPH, 3.4 mM alpha-ketoglutarate in Assay Buffer) and the mixture is incubated for 60 minutes at room temperature. The reaction is terminated with the addition of 5 μl of Detection Buffer (100 μg/mL diaphorase, 30 μM resazurin, in IX Assay Buffer), and is incubated for 15 minute before reading on a ViewLux as platereader at Ex544/Em590.
Compounds are assayed for their activity against IDH1^R132C following the same assay as above with the following modifications: IDH1^R132C and alpha-ketoglutarate final concentrations in the Assay Buffer is 2 nM and 0.14 mM, respectively.

[2] = molecular target: T2, IDH1^R132H homodimer enzyme (Homo sapiens, UniProt O75874, R132H); assay: NADPH depletion assay, IDH1 R132H; type: biochemical
T2 construct: purchased not specified
T2 sequence (O75874 whole entry R132H): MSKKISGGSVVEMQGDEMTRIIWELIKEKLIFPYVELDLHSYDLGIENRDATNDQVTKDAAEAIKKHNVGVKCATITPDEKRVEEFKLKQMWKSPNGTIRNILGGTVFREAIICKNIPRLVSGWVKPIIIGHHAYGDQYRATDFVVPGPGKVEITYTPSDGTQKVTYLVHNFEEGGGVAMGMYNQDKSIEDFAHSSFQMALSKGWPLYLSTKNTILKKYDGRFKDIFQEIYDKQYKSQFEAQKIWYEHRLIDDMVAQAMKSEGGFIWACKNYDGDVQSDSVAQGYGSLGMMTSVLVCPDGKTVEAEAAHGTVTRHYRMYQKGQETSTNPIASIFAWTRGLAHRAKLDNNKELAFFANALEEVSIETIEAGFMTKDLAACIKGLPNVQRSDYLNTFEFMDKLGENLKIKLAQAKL
Protocol: as §1, §2

T1 sequence (O75874 whole entry R132C): as the sequence (O75874 whole entry R132H) above, with H132C counted along it

Structure (SMILES)	IC50 [1]	IC50 [2]
CC(C#N)n1c(=O)ccc2cnc(N[C@@H](C)c3ccc(CN4CCCC(F)(F)C4)cc3)nc21 (stereo partly drawn) [cpd 64, 2-[2-{[(1S)-1-{4-[(3,3-difluoropiperidin-1-yl)methyl]phenyl}ethyl]amino}-7-oxopyrido[2,3-d]pyrimidin-8(7H)-yl]propanenitrile]	133 nM	210 nM
COC(=O)c1ccc([C@H](C)Nc2ncc3ccc(=O)n(CC4(C)COC4)c3n2)cc1 [cpd 10, methyl 4-[(1S)-1-({8-[(3-methyloxetan-3-yl)methyl]-7-oxo-pyrido[2,3-d]pyrimidin-2-yl}amino)ethyl]benzoate]	1920 nM	3850 nM
C[C@H](Nc1ncc2ccc(=O)n(CC(C)(C)C)c2n1)c1ccc(C(=O)NC2CCC(F)(F)CC2)c(Cl)c1 [cpd 88, 2-chloro-N-(4,4-difluorocyclohexyl)-4-[(1S)-1-{[8-(2,2-dimethylpropyl)-7-oxo-7,8-dihydropyrido[2,3-d]pyrimidin-2-yl]amino}ethyl]benzamide]	97 nM	138 nM
C[C@H](Nc1ncc2ccc(=O)n(CC(C)(C)C(=O)O)c2n1)c1ccc2ccccc2c1 [cpd 121, 2,2-dimethyl-3-[2-{[(1S)-1-(naphthalen-2-yl)ethyl]amino}-7-oxopyrido[2,3-d]pyrimidin-8(7H)-yl]propanoic acid]	1630 nM	3900 nM
COC(=O)c1ccc([C@H](C)Nc2ncc3ccc(=O)n(Cc4ccccc4)c3n2)cc1 [cpd 1, Methyl 4-{(1S)-1-[(8-benzyl-7-oxo-pyrido[2,3-d]pyrimidin-2-yl)amino]ethyl}benzoate]	622 nM	1830 nM
C[C@H](Nc1ncc2ccc(=O)n(CC(C)(C)C)c2n1)c1ccc(C(=O)NC2CCCC2)cc1 [cpd 80, N-cyclopentyl-4-[(1S)-1-{[8-(2,2-dimethylpropyl)-7-oxo-pyrido[2,3-d]pyrimidin-2-yl]amino}ethyl]benzamide]	282 nM	444 nM
CC(C)[C@H](C)n1c(=O)ccc2cnc(N[C@@H](C)c3ccc(N4CCOCC4)cc3)nc21 [cpd 173, 8-[(2S)-3-methylbutan-2-yl]-2-({(1S)-1-[4-(morpholin-4-yl)phenyl]ethyl}amino)pyrido[2,3-d]pyrimidin-7(8H)-one]	144 nM	575 nM
CC(C)[C@H](C)n1c(=O)ccc2cnc(N[C@@H](C)c3ccc(N4CCNCC4)cc3)nc21 [cpd 176, 8-[(2S)-3-methylbutan-2-yl]-2-({(1S)-1-[4-(piperazin-1-yl)phenyl]ethyl}amino)pyrido[2,3-d]pyrimidin-7(8H)-one]	1910 nM	3510 nM
C=CC(=O)N1CCN(Cc2ccc([C@H](C)Nc3cc4c(ccc(=O)n4CC)cn3)cc2)CC1 [cpd 236, 7-{(S)-1-[4-(4-Acryloyl-piperazin-1-ylmethyl)-phenyl]-ethylamino}-1-ethyl-1H-[1,6]naphthyridin-2-one]	105 nM	–
C=CC(=O)N1CCN(Cc2ccc([C@H](C)Nc3nc(NC)c4ccc(=O)n(CC(C)(C)C)c4n3)cc2)CC1 [cpd 202, 2-{[(1S)-1-{4-[(4-acryloylpiperazin-1-yl)methyl]phenyl}ethyl]amino}-8-(2,2-dimethylpropyl)-4-(methylamino) pyrido[2,3-d]pyrimidin-7(8H)-one]	104 nM	666 nM
CC(C)[C@H](C)n1c(=O)ccc2cnc(N[C@@H](C)c3ccc(C4=CCN(C(=O)C5CC5)CC4)cn3)nc21 [cpd 195, 2-({(1S)-1-[1′-(cyclopropylcarbonyl)-1′,2′,3′,6′-tetrahydro-3,4′-bipyridin-6-yl]ethyl}amino)-8-[(2S)-3-methylbutan-2-yl]pyrido[2,3-d]pyrimidin-7(8H)-one]	184 nM	593 nM
C[C@H](Nc1ncc2ccc(=O)n(CC(C)(C)C)c2n1)c1ccc(CN2CCCC2)cc1 [cpd 111, 8-(2,2-dimethylpropyl)-2-({(1S)-1-[4-(pyrrolidin-1-ylmethyl)phenyl]ethyl}amino)pyrido[2,3-d]pyrimidin-7(8H)-one]	1420 nM	4040 nM
C[C@H](Nc1ncc2ccc(=O)n(CCF)c2n1)c1ccc(Cl)cc1 [cpd 17, 2-{[(1S)-1-(4-chlorophenyl)ethyl]amino}-8-(2-fluoroethyl)pyrido[2,3-d]pyrimidin-7(8H)-one]	1890 nM	4910 nM
CC(C)C(=O)N1CCN(Cc2ccc([C@H](C)Nc3ncc4ccc(=O)n(CC(C)(C)C)c4n3)cc2)CC1 [cpd 157, 8-(2,2-dimethylpropyl)-2-{[(1S)-1-(4-{[4-(2-methylpropanoyl)piperazin-1-yl]methyl}phenyl)ethyl]amino}-pyrido [2,3-d]pyrimidin-7(8H)-one]	51 nM	162 nM
CC(C)(C)Cn1c(=O)ccc2cnc(NC(C)(C)c3ccccc3)nc21 [cpd 41, 8-(2,2-dimethylpropyl)-2-[(2-phenylpropan-2-yl)amino]pyrido[2,3-d]pyrimidin-7(8H)-one]	1410 nM	2460 nM
CC(C)(C)Cn1c(=O)ccc2cnc(NC3(c4ccccc4)CC3)nc21 [cpd 42, 8-(2,2-dimethylpropyl)-2-[(1-phenylcyclopropyl)amino]pyrido[2,3-d]pyrimidin-7(8H)-one]	951 nM	1380 nM
C[C@H](Nc1ncc2ccc(=O)n(CC(C)(C)C)c2n1)c1ccc(O)cc1 [cpd 145, 8-(2,2-Dimethyl-propyl)-2-[(S)-1-(4-hydroxy-phenyl)-ethylamino]-8H-pyrido[2,3-d]pyrimidin-7-one]	1320 nM	3560 nM
CCCn1c(=O)ccc2cnc(N[C@@H](C)c3ccc(CN4CCCCCC4)cc3)nc21 [cpd 102, 2-({(1S)-1-[4-(azepan-1-ylmethyl)phenyl]ethyl}amino)-8-propylpyrido[2,3-d]pyrimidin-7(8H)-one]	2800 nM	4320 nM
CCn1c(=O)ccc2cnc(N[C@@H](C)c3ccc(CN4CCN(C(=O)OC(C)(C)C)CC4)cc3)cc21 [cpd 232, 4-{4-[(S)-1-(1-Ethyl-2-oxo-1,2-dihydro-[1,6]naphthyridin-7-ylamino)-ethyl]-benzyl}-piperazine-1-carboxylic acid tert-butyl ester]	330 nM	–
COCCn1c(=O)ccc2cnc(N[C@@H](C)c3ccc(CN4CCC(F)(F)CC4)cc3)nc21 [cpd 114, 2-{[(1S)-1-{4-[(4,4-difluoropiperidin-1-yl)methyl]phenyl}ethyl]amino}-8-(2-methoxyethyl)pyrido[2,3-d]pyrimidin-7(8H)-one]	1910 nM	2370 nM
C[C@H](Nc1ncc2ccc(=O)n(CC(C)(C)C)c2n1)c1ccc(C(=O)NC2CCC(F)(F)CC2)cc1 [cpd 79, N-(4,4-difluorocyclohexyl)-4-[(1S)-1-{[8-(2,2-dimethylpropyl)-7-oxo-pyrido[2,3-d]pyrimidin-2-yl]amino}ethyl]benzamide]	357 nM	529 nM
C=CC(=O)N1CCN(Cc2ccc([C@H](C)Nc3ncc4ccc(=O)n(CC)c4n3)cc2)[C@@H](C)C1 [cpd 210, 2-{[(1S)-1-(4-{[(2S)-4-acryloyl-2-methylpiperazin-1-yl]methyl}phenyl)ethyl]amino}-8-ethylpyrido[2,3-d]pyrimidin-7(8H)-one]	183 nM	–
C=CC(=O)N1CC[C@@H](Oc2ccc([C@H](C)Nc3ncc4ccc(=O)n(CC)c4n3)cc2)C1 [cpd 223, 2-{[(1S)-1-(4-{[(3R)-1-acryloylpyrrolidin-3-yl]oxy}phenyl)ethyl]amino}-8-ethylpyrido[2,3-d]pyrimidin-7(8H)-one]	1670 nM	–
CCC(=O)N1CCN(C(CC)c2ccc([C@H](C)Nc3ncc4ccc(=O)n(C(C)C)c4n3)cc2)CC1 (stereo partly drawn) [cpd 240, 2-{[(1S)-1-{4-[1-(4-propanoylpiperazin-1-yl)propyl]phenyl}ethyl]amino}-8-(propan-2-yl)pyrido[2,3-d]pyrimidin-7(8H)-one]	68 nM	–
CC(C)[C@H](C)n1c(=O)ccc2cnc(N[C@@H](C)c3ccc(N4CCNCC4)nc3)nc21 [cpd 180, 8-[(2S)-3-methylbutan-2-yl]-2-({(1S)-1-[6-(piperazin-1-yl)pyridin-3-yl]ethyl}amino)pyrido[2,3-d]pyrimidin-7(8H)-one]	3540 nM	–
C=CC(=O)N1CCN(Cc2ccc([C@H](C)Nc3ncc4ccc(=O)n(CC)c4n3)cc2)C[C@@H]1C [cpd 211, 2-{[(1S)-1-(4-{[(3S)-4-acryloyl-3-methylpiperazin-1-yl]methyl}phenyl)ethyl]amino}-8-ethylpyrido[2,3-d]pyrimidin-7(8H)-one]	525 nM	–
C=CC(=O)N1CCN(Cc2ccc([C@H](C)Nc3ncc4ccc(=O)n(CC)c4n3)cc2)[C@H](C)C1 [cpd 207, 2-{[(1S)-1-(4-{[(2R)-4-acryloyl-2-methylpiperazin-1-yl]methyl}phenyl)ethyl]amino}-8-ethylpyrido[2,3-d]pyrimidin-7(8H)-one]	624 nM	–
C=CC(=O)N1CCN(Cc2ccc([C@H](C)Nc3ncc4ccc(=O)n(CC)c4n3)cc2)C[C@H]1C [cpd 208, 2-{[(1S)-1-(4-{[(3R)-4-acryloyl-3-methylpiperazin-1-yl]methyl}phenyl)ethyl]amino}-8-ethylpyrido[2,3-d]pyrimidin-7(8H)-one]	213 nM	–
